From patent US12129237B2, “Substituted diaminocarboxamide and diaminocarbonitrile pyrimidines, compositions thereof, and methods of treatment therewith” (SIGNAL PHARMACEUTICALS, LLC, priority 2011, dated 2024) come the findings set out here.

The target of this experiment is T1, JNK1 (Homo sapiens, UniProt P45983).
T1 construct: purchased Carna Biosciences
The experiment is described as follows: JNK1 biochemical assays (one or more of: time resolved fluorescence, Z'-LYTE Cascade, radioactive).

Where [1] appears, read: one or more of the JNK1 biochemical assays, read-out: Act. Level (JNK1 IC50 activity level).
[2] abbreviates: Table 2, JNK1 IC50 activity level, read-out: Act. Level.
Where [3] appears, read: tested in one or more of the JNK1 biochemical assays, read-out: Act. Level (JNK1 biochemical assay IC50 activity level).
Where [4] appears, read: Table 3, JNK1 IC50 activity level, read-out: Act. Level.

Read-outs that look alike come from different tables or passages of the source.

T1 sequence (P45983 whole entry): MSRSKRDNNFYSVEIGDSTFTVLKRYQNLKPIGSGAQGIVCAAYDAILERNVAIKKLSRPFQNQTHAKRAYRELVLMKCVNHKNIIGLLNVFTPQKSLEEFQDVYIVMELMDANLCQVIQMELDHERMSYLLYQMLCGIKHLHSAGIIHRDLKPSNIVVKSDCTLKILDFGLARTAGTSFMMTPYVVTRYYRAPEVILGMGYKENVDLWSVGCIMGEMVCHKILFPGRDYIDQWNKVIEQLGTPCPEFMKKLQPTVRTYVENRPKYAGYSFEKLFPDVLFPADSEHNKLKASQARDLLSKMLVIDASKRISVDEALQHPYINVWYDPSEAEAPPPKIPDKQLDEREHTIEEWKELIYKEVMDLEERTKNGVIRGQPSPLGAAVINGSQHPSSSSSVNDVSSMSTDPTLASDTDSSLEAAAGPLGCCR
Protocol: JNK1 Assay. A 384-well time resolved fluorescence assay was used to monitor JNK1 activity. The JNK1 assay was run in the following assay buffer: 50 mM HEPES, 10 mM MgCl2, 1 mM EGTA, 2 mM DTT, and 0.01% Tween 20. To initiate the reaction 100 nM of ULight™-labeled 4EBP1 peptide (Perkin-Elmer) and 5 μM of ATP were mixed with 500 pM of JNK1 (Carna Biosciences), for a total assay volume of 20 μL in each well. The assay was incubated at room temperature for 1 h and terminated using a mixture of 30 mM EDTA and 4 nM Eu-anti-4EBP1, by adding 20 μL of stop solution to each well. Plates were read on a Perkin-Elmer Envision Reader.
JNK1 Assay. The JNK1 Z′-LYTE® Cascade kinase assay was run in the following buffer: 50 mM HEPES at pH 7.5, 0.01% BRIJ-35, 10 mM MgCl2, 1 mM EGTA, and 1 mM DTT. […] The assay was incubated at room temperature for 1 h. […] The data was then read on a fluorescence plate reader and analyzed.
JNK1 assay. The radioactive JNK kinase assay was carried out in a 96-well plate format at a final volume of 100 μL. […] JNK1 was diluted in the following dilution buffer (20 mM HEPES pH 7.6, 0.1 mM EDTA, 2.5 mM MgCl2, 0.004% (w/v) Triton X100, 2 μg/ml Leupeptin, 20 mM B-glycerol phosphate, 0.1 mM Na3VO4 dithiothreitol) and then pre-mixed with cJun diluted in the substrate solution buffer (20 mM HEPES pH 7.6, 50 mM NaCl, 0.1 mM EDTA, 2.5 mM MgCl2, 0.05% (w/v) Triton X100). […] The enzyme, substrate and inhibitor mixture was allowed to equilibrate at room temperature for 15 minutes. The reaction was started by the addition of 10 μL of 10×ATP in kinase buffer (130 mM MgCl2, 6 mM dithiothreitol, 150 mM para-nitrophenyl phosphate, 100 μCi/ml γ-[^33P]-ATP). Reactions were allowed to proceed for 60 minutes before precipitation of protein via trichloroacetic acid (7.2% TCA final). […] The precipitate was washed with Phosphate Buffered Saline and the amount of phosphate incorporated into cJun was quantified by scintillation counting using a Packard Topcount-NXT. All assays were conducted under conditions where phosphate incorporation was linear with respect to time and enzyme concentration.

Take `CC1CCC1Nc1nc(N[C@H]2CC[C@H](OCC(F)(F)F)CC2)ncc1C(N)=O` (stereo partly drawn) [Example 256, 4-(2-methylcyclobutylamino)-2-((1r,4r)-4-(2,2,2-trifluoroethoxy)cyclohexylamino)pyrimidine-5-carboxamide]: the IC50 under setting [1] is less than 200 nM.
For `CCC(C)Nc1ncc(C(N)=O)c(Nc2ccccc2)n1` (stereo not drawn) [Example B-46, 2-(sec-butylamino)-4-(phenylamino)pyrimidine-5-carboxamide], the IC50 under setting [2] was less than 200 nM.
`CCO[C@H]1C[C@H](Nc2ncc(C(N)=O)c(N[C@H]3CCC[C@@H]3O)n2)C1` [Example A-74, 2-((1r,3S)-3-ethoxycyclobutylamino)-4-((1S,2S)-2-hydroxycyclopentylamino)pyrimidine-5-carboxamide]: the IC50 under setting [3] lay in the range of 200 to 800 nM.
With `CO[C@H]1CC[C@H](Nc2ncc(C#N)c(N[C@H]3CCCC[C@@](C)(O)C3)n2)CC1` [Example C-52, 4-((1S,3R)-3-hydroxy-3-methylcycloheptylamino)-2-((1r,4S)-4-methoxycyclohexylamino) pyrimidine-5-carbonitrile], the IC50 under setting [4] was less than 200 nM.
On to `CC(=O)N[C@H]1CC[C@H](Nc2ncc(C(N)=O)c(N[C@@H]3CCC[C@H](O)C3)n2)CC1` [Example A-39, 2-((1r,4R)-4-acetamidocyclohexylamino)-4-((1R,3S)-3-hydroxycyclohexylamino)pyrimidine-5-carboxamide], for which the IC50 under setting [3] was less than 200 nM.
As to `NC(=O)c1cnc(NCc2ccc(F)c(F)c2)nc1Nc1ccccc1` [Example B-70, 2-(3,4-difluorobenzylamino)-4-(phenylamino)pyrimidine-5-carboxamide], under setting [2], the IC50 was in the range of 200 to 800 nM.
Take `NC(=O)c1cnc(NC2CCCCC2)nc1N[C@H]1CC[C@@H](O)CC1` [Example A-147, 2-(cyclohexylamino)-4-((1s,4s)-4-hydroxycyclohexylamino)pyrimidine-5-carboxamide]: the IC50 under setting [3] was less than 200 nM.
`CC(C)CC(=O)N1CCC(Nc2ncc(C(N)=O)c(N[C@H]3C[C@@H](O)C3)n2)CC1` [Example A-68, 4-((1s,3s)-3-hydroxycyclobutylamino)-2-(1-(3-methylbutanoyl)piperidin-4-ylamino)pyrimidine-5-carboxamide]: the IC50 under setting [3] is less than 200 nM.
With `C[C@@H]1CC[C@@H](Nc2nc(NC(C)(C)C3CC3)ncc2C(N)=O)C[C@H]1O` [Example 397, 2-(2-cyclopropylpropan-2-ylamino)-4-((1R,3R,4R)-3-hydroxy-4-methylcyclohexylamino)pyrimidine-5-carboxamide], the IC50 under setting [1] is less than 200 nM.
In the case of `NC(=O)c1cnc(NC2CCC2)nc1N[C@@H]1CCC[C@H](O)C1` [Example 341, 2-(cyclobutylamino)-4-((1R,3S)-3-hydroxycyclohexylamino)pyrimidine-5-carboxamide], the IC50 under setting [1] was less than 200 nM.
`CC(C)(C)Nc1nc(NC2CCOCC2)ncc1C(N)=O` [Example 317, 4-(tert-butylamino)-2-(tetrahydro-2H-pyran-4-ylamino)pyrimidine-5-carboxamide]: the IC50 under setting [1] was less than 200 nM.
Consider `CO[C@H]1CC[C@](C)(Nc2ncc(C(N)=O)c(N[C@@H]3CCC[C@H](O)C3)n2)CC1` [Example 216, 4-((1R,3S)-3-hydroxycyclohexylamino)-2-((1r,4R)-4-methoxy-1-methylcyclohexylamino)pyrimidine-5-carboxamide], for which the IC50 under setting [1] was less than 200 nM.
As to `NC(=O)c1cnc(N[C@H]2CC[C@H](O)CC2)nc1NC1CC1` [Example A-175, 4-(cyclopropylamino)-2-((1r,4r)-4-hydroxycyclohexylamino)pyrimidine-5-carboxamide], the IC50 under setting [3] is less than 200 nM.
For the molecule `NC(=O)c1cnc(NC23CC(C2)C3)nc1N[C@@H]1CCCC[C@H](O)C1` [Example 346, 2-(bicyclo[1.1.1]pentan-1-ylamino)-4-((1R,3S)-3-hydroxycycloheptylamino)pyrimidine-5-carboxamide], under setting [1], the IC50 was less than 200 nM.
Consider `CC(C)(C)Nc1nc(N[C@@H]2CCC[C@](C)(O)C2)ncc1C(N)=O` [Example 380, 4-(tert-butylamino)-2-((1R,3S)-3-hydroxy-3-methylcyclohexylamino)pyrimidine-5-carboxamide], for which the IC50 under setting [1] was less than 200 nM.
As to `CN(C)C(=O)[C@H]1CC[C@@H](Nc2nc(NC3CCC3)ncc2C(N)=O)CC1` [Example A-134, 2-(cyclobutylamino)-4-((1s,4s)-4-(dimethylcarbamoyl)cyclohexylamino)pyrimidine-5-carboxamide], under setting [3], the IC50 lay in the range of 1000 to 10000 nM.
Consider `NC(=O)c1cnc(NCc2ccccc2)nc1Nc1ccccc1` [Example B-73, 2-(benzylamino)-4-(phenylamino)pyrimidine-5-carboxamide], for which, under setting [2], the IC50 was 800 to 1000 nM.
`CO[C@@H]1CCC[C@@H](Nc2ncc(C(N)=O)c(N[C@@H]3CCC[C@H](O)C3)n2)CC1` [Example A-201, 4-((1R,3S)-3-hydroxycyclohexylamino)-2-((1R,4R)-4-methoxycycloheptylamino)pyrimidine-5-carboxamide]: the IC50 under setting [3] is less than 200 nM.
For the molecule `CCOc1ccccc1CNc1ncc(C(N)=O)c(Nc2ccccc2)n1` [Example B-54, 2-(2-ethoxybenzylamino)-4-(phenylamino)pyrimidine-5-carboxamide], under setting [2], the IC50 was 800 to 1000 nM.
For `C[C@]1(O)CCC[C@@H](Nc2nc(NC34CC(C3)C4)ncc2C(N)=O)C1` [Example 347, 2-(bicyclo[1.1.1]pentan-1-ylamino)-4-((1R,3S)-3-hydroxy-3-methylcyclohexylamino)pyrimidine-5-carboxamide], under setting [1], the IC50 was less than 200 nM.
Still for that read-out and setting: as for `CO[C@H]1CC[C@H](Nc2ncc(C(N)=O)c(NC(C)(C)C(C)(C)C)n2)CC1` [Example 333, 2-((1r,4r)-4-methoxycyclohexylamino)-4-(2,3,3-trimethylbutan-2-ylamino)pyrimidine-5-carboxamide], the figure is less than 200 nM.
Regarding `NC(=O)c1cnc(N[C@@H]2CCc3ncccc3C2)nc1N[C@@H]1CCCC[C@H](O)C1` [Example B-98, 4-((1R,3S)-3-hydroxycycloheptylamino)-2-((R)-5,6,7,8-tetrahydroquinolin-6-ylamino)pyrimidine-5-carboxamide], the IC50 under setting [2] is less than 200 nM.
Turning to `CC(C)Nc1ncc(C(N)=O)c(N[C@H]2CC[C@@H](C(C)(C)O)CC2)n1` [Example A-140, 4-((1s,4s)-4-(2-hydroxypropan-2-yl)cyclohexylamino)-2-(isopropylamino)pyrimidine-5-carboxamide], under setting [3], the IC50 is 200 to 800 nM.
Still for that read-out and setting: as for `CCO[C@H]1CC[C@H](Nc2ncc(C(N)=O)c(NCCO)n2)CC1` [Example A-71, 2-((1r,4r)-4-ethoxycyclohexylamino)-4-(2-hydroxyethylamino)pyrimidine-5-carboxamide], the figure is less than 200 nM; as for `COC[C@H]1CC[C@@H](Nc2nc(NC3CCN(C(C)=O)CC3)ncc2C(N)=O)CC1` [Example A-83, 2-(1-acetylpiperidin-4-ylamino)-4-((1s,4s)-4-(methoxymethyl)cyclohexylamino)pyrimidine-5-carboxamide], 200 to 800 nM.
Turning to `N#Cc1cnc(N[C@H]2CC[C@H](O)CC2)nc1N[C@@H]1CCC[C@H](O)C1` [Example C-8, 4-((1R,3S)-3-hydroxycyclohexylamino)-2-((1r,4R)-4-hydroxycyclohexylamino) pyrimidine-5-carbonitrile], the IC50 under setting [4] was less than 200 nM.
Consider `COC12CCC(Nc3ncc(C(N)=O)c(NC4CCC[C@](C)(O)C4)n3)(CC1)CC2` (stereo partly drawn) [Example 370, 4-((3S)-3-hydroxy-3-methylcyclohexylamino)-2-(4-methoxybicyclo[2.2.2]octan-1-ylamino)pyrimidine-5-carboxamide], for which the IC50 under setting [1] was less than 200 nM.
As for `COC[C@H]1CC[C@H](Nc2ncc(C(N)=O)c(NC3CCN(C(C)=O)CC3)n2)CC1` [Example A-82, 4-(1-acetylpiperidin-4-ylamino)-2-((1r,4r)-4-(methoxymethyl)cyclohexylamino)pyrimidine-5-carboxamide], the IC50 under setting [3] lay within 200 to 800 nM.
For `NC(=O)c1cnc(N[C@@H]2CCCOC2)nc1N[C@@H]1CCC[C@H](O)C1` [Example A-50, 4-((1R,3S)-3-hydroxycyclohexylamino)-2-((R)-tetrahydro-2H-pyran-3-ylamino)pyrimidine-5-carboxamide], the IC50 under setting [3] was less than 200 nM.
In the case of `CC(C)Nc1nc(N[C@H]2CC[C@H](OC(F)F)CC2)ncc1C(N)=O` [Example A-191, 2-((1r,4r)-4-(difluoromethoxy)cyclohexylamino)-4-(isopropylamino)pyrimidine-5-carboxamide], the IC50 under setting [3] was less than 200 nM.
The same measure, in the same setting: as for `NC(=O)c1cnc(N[C@H]2CC[C@H](O)CC2)nc1N[C@@H]1CCCC[C@H](O)C1` [Example A-171, 4-((1R,3S)-3-hydroxycycloheptylamino)-2-((1r,4R)-4-hydroxycyclohexylamino)pyrimidine-5-carboxamide], the figure is less than 200 nM.
Consider `COc1cc(Nc2ncc(C(N)=O)c(Nc3ccccc3)n2)cc(OC)c1` [Example B-23, 2-(3,5-dimethoxyphenylamino)-4-(phenylamino)pyrimidine-5-carboxamide], for which the IC50 under setting [2] was less than 200 nM.
Still for that read-out and setting: then `COc1cc(Nc2ncc(C(N)=O)c(Nc3ccccc3)n2)cc(OC)c1OC` [Example B-19, 4-(phenylamino)-2-(3,4,5-trimethoxyphenylamino)pyrimidine-5-carboxamide], with less than 200 nM.
On to `CO[C@H]1CC[C@H](Nc2ncc(C#N)c(N[C@@H]3CCC[C@@H]3CO)n2)CC1` [Example C-16, 4-((1R,2S)-2-(hydroxymethyl)cyclopentylamino)-2-((1r,4R)-4-methoxycyclohexylamino) pyrimidine-5-carbonitrile], for which the IC50 under setting [4] is less than 200 nM.
In the case of `C[C@H](Nc1ncc(C(N)=O)c(N[C@@H]2CCC[C@H](O)C2)n1)c1ccc(F)cc1` [Example B-90, 2-((S)-1-(4-fluorophenyl)ethylamino)-4-((1R,3S)-3-hydroxycyclohexylamino)pyrimidine-5-carboxamide], the IC50 under setting [2] is 1000 to 10000 nM.
As for `CC1(Nc2nc(N[C@H]3CC[C@H](O)CC3)ncc2C(N)=O)CCOCC1` [Example A-79, 2-((1r,4r)-4-hydroxycyclohexylamino)-4-(4-methyltetrahydro-2H-pyran-4-ylamino)pyrimidine-5-carboxamide], the IC50 under setting [3] was less than 200 nM.
